Data as given in ChEMBL document CHEMBL1130144, “Ras farnesyltransferase: a new therapeutic target” (J Med Chem, 1997).
Blank lines part the entries; values can stand above or below the compound they belong to.

How the values were obtained:
[1] = molecular target: Protein farnesyltransferase (Bos taurus, UniProt P29702+P49355); test: Activity against bovine Farnesyltransferase; type: protein-complex assay
[2] = molecular target: Geranylgeranyl transferase type I (Homo sapiens, UniProt P49354+P53609); test: Activity against Geranylgeranyl transferase type I; type: protein-complex assay
NIH3T3 [3] = test: Inhibition of Ras processing in v-Ras-transformed NIH 3T3 cell growth in soft agar at 50 uM; type: functional, cell-based; settings: Mus musculus
[4] = molecular target: T1, Protein farnesyltransferase (Rattus norvegicus, UniProt Q02293+Q04631); test: Activity against rat brain Farnesyltransferase
[5] = molecular target: T2, Protein farnesyltransferase (Mus musculus) (UniProt Q61239+Q8K2I1); test: Concentration disrupting H-Ras processing in human H-Ras BALB/c 3T3 cells; type: functional, cell-based
[6] = molecular target: T3, Protein farnesyltransferase (Homo sapiens, UniProt P49354+P49356); test: Activity against Farnesyltransferase; type: protein-complex assay
[7] = molecular target: T1, Protein farnesyltransferase; test: Activity against rat Farnesyltransferase; type: protein-complex assay
Tumor Cell line = test: Inhibition of colony formation in soft agar of 14 human tumor cell lines; type: functional, cell-based
[8] = molecular target: Protein farnesyltransferase (Sus scrofa); test: Activity against pig Farnesyltransferase
[9] = molecular target: T3, Protein farnesyltransferase; test: Activity against human Farnesyltransferase; type: protein-complex assay
Mus musculus [10] = test: Activity against H-Ras-transformed rat-1 tumor cells implanted intraperitoneally in athymic mice; type: functional
[11] = molecular target: T2, Protein farnesyltransferase (Mus musculus); test: Inhibition of Ras-processing in H-Ras transformed NIH3T3 fibroblasts; type: functional, cell-based
[12] = molecular target: T3, Protein farnesyltransferase; test: Concentration inhibiting farnesylation of p21ras in Ras-transformed cells; type: functional, cell-based
[13] = molecular target: T3, Protein farnesyltransferase; test: Inhibition of Ras processing in v-Ras-transformed cells; type: functional, cell-based
Mus musculus [14] = organism: Mus musculus; test: Concentration causing regression of MMTV-v-Ras mice bearing palpable tumors; type: functional, organism-based
NIH3T3 [15] = test: Inhibitory activity against Ha-Ras-transformed NIH3T3 cells; type: functional, Mus musculus
[16] = molecular target: Protein farnesyltransferase (Mus musculus, UniProt Q61239+Q8K2I1); test: Inhibition of Ras processing; type: functional

- IC50 [4]: 50 nM
- Concentration [5]: 50 µM
SMILES: N[C@@H](CS)CNc1ccc(-c2cccc(C(=O)O)c2)cc1

- IC50 [7]: 0.79 nM
SMILES: CSCCC(NC(=O)CN1C(=O)[C@H](N(C)C(=O)[C@H](N)CS)NC(c2ccccc2)c2ccccc21)C(=O)O (some centres not stated)

- IC50 [6]: 400 nM
SMILES: CN(C(=O)[C@@H](Cc1cnc[nH]1)NC(=O)OCc1ccccc1)[C@@H](Cc1ccc(OCc2ccccc2)cc1)C(=O)NCCOCc1ccccc1

- IC50 [7]: 0.85 nM
SMILES: COC(=O)C(CCSC)NC(=O)CN1C(=O)[C@H](N(C)C(=O)[C@H](N)CS)NC(c2ccccc2)c2ccccc21 (some centres not stated)

- IC50 (Tumor Cell line): 60000 nM
SMILES: COC(=O)[C@H](CCSC)NC(=O)[C@H](/C=C\[C@@H](/C=C/[C@@H](N)CS)C(C)C)Cc1ccccc1

- IC50 [7]: 2.8 nM
- IC50 [2]: 1400 nM
SMILES: CC(C)(C)[C@H](NC[C@@H](N)CS)C(=O)N1Cc2ccccc2C[C@H]1C(=O)N[C@@H](CCC(N)=O)C(=O)O

- IC50 [9]: 100 nM
SMILES: CCC/C=C\c1ccccc1/C=C/C(=O)N[C@H](Cc1ccc(O)cc1)C(=O)N(C)C(Cc1ccc(OC)c(O)c1Cl)C(=O)N(C)[C@@H](Cc1ccccc1)C(=O)OC[C@@H]1NC(=O)CNC1=O (some centres not stated)

- IC50 [7]: 85 nM
- IC50 [2]: 200 nM
SMILES: COC(=O)[C@H](CCSC)NC(=O)[C@@H]1Cc2ccccc2CN1C(=O)[C@@H](NC[C@@H](N)CS)C(C)(C)C
- T/C (Mus musculus [10]): 154%

- IC50 [13]: 50000 nM
SMILES: CSCC[C@H](NC(=O)[C@H](Cc1ccccc1)NC[C@@H](NC[C@@H](N)CS)C(C)C)C(=O)O

- IC50 [1]: 5 nM
- IC50 [2]: 10000 nM
- IC50 [16]: 500 nM
SMILES: COCC[C@@H]1CN(C(=O)c2cccc3ccccc23)CCN1C[C@H](N)CS
- IC75 (NIH3T3 [15]): 40 mg/kg

Continued, compound first:

SMILES: CC[C@@H](C)[C@H](NC[C@@H](NC[C@@H](N)CS)[C@H](C)CC)C(=O)N[C@H]1CCOC1=O
- IC50 [1]: 280 nM
- IC50 [2]: > 10000 nM
- IC50 (NIH3T3 [3]): 50000 nM

SMILES: COC1=C(N)C(=O)c2nc(-c3nc(C(=O)O)c(C)c(-c4cccc(OC)c4O)c3N)ccc2C1=O
- IC50 [6]: 21000 nM

SMILES: CC(C)=CCC/C(C)=C/CC/C(C)=C/C(=O)C(F)(F)P(=O)(O)O
- IC50 [8]: 350 nM

SMILES: COC(=O)[C@H](CCSC)NC(=O)[C@@H](NC(=O)[C@@H](NC(=O)CCP(=O)(O)C/C=C(\C)CC/C=C(\C)CCC=C(C)C)C(C)C)C(C)C
- Concentration [11]: 0.1 µM

SMILES: CCC(CC(C)C(=O)O)C(=O)CC/C1=C/C(C)C/C(C)=C/C(C)C(O)C(C)CCC(CCCC/C=C/C(C)CCC(C)OC(=O)CC(CC(=O)O)C(=O)O)OC(=O)CC(C(=O)O)CC(=O)OC1 (configuration not stated) [ACTINOPLANIC ACID A]
- IC50 [9]: 230 nM

SMILES: CCC(=O)O[C@H](C[C@@]1(C)[C@H](C)CCC(=O)[C@@H]1C)/C(C)=C/Cc1c(O)cc(C)c(C=O)c1O [CYLINDROL A]
- IC50 [1]: 2200 nM

SMILES: CCC(OCCCCNCCSS(=O)(=O)O)C1CCCCC1 (configuration not stated)
- IC50 [4]: 2000 nM
- Concentration [12]: 25 µM

SMILES: O=C(CN(Cc1ccc(OCc2ccccc2)cc1)C(=O)[C@H](Cc1c[nH]cn1)NC(=O)OCc1ccccc1)NCCOCc1ccccc1
- IC50 [6]: 260 nM
- Concentration [11]: 1 µM

SMILES: CC(C)=CCC/C(C)=C/CC/C(C)=C/CONC(=O)COP(=O)(O)O
- IC50 [6]: 75 nM

SMILES: O=C(N[C@H](Cc1cnc[nH]1)C(=O)N[C@@H](Cc1ccc(OCc2ccccc2)cc1)C(=O)NCCOCc1ccccc1)OCc1ccccc1
- IC50 [6]: 20 nM

SMILES: CC[C@H](C)[C@@H](CO[C@@H](Cc1ccccc1)C(=O)N[C@@H](CCS(C)(=O)=O)C(=O)OC(C)C)NC[C@@H](N)CS
- Concentration (Mus musculus [14]): 40 mg/kg
